The text below walks through data of patent US11407736B2 (priority 2019, dated 2022).

Read-outs that look alike come from different tables or passages of the source.

The subject of assay [1] is L929 cells. The experiment in a line: L929 cell necroptosis assay (TNFa + zVAD, CellTiter-Glo). Type of assay: cell-based, murine. The conditions noted are these: Mus musculus, L929, L929 cells, TNFa + zVAD; read-out: L929-CTG-recovery, L929, TNFa + zVAD (IC50). Summed up: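 Necroptosis was read as CellTiter-Glo luminescence 18 hours after TNFa stimulation at 37° C, 5% CO2. Prior to that, L929 cells (10K/well, plated 18 h) received fresh medium with 40 uM zVAD-fmk plus 4-fold serially diluted compound.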

The target of assay [2] is RIPK1 (Homo sapiens (Human), UniProt Q13546). Nature of the assay: RIPK1 ADP-Glo biochemical kinase assay. How it is done: The final reaction volume was 5.0ul.
Adding 5 μl of ADP-Glo™ terminated the reaction.
In general terms: ADP-Glo first removes unused ATP, then detects ADP through luciferase.

Assay [3] relates to U937 cells. Nature of the assay: U937 cell necroptosis assay (TNFa + zVAD, CellTiter-Glo). Type of assay: cell-based, human. The conditions noted are these: Homo sapiens, U-937, U937 cells, TNFa + zVAD; read-out: U937 Zvad TNF CTG Recovery, U937, TNFa + zVAD (IC50). An outline of the steps: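 Necroptosis was induced with TNFa at 2 ng/mL final for 18 h at 37 °C, following 1 h compound pre-incubation in the presence of zVAD-fmk (60 uM for U937 plating medium, 40 uM for L929 medium). Luminescent CellTiter-Glo signal gave relative cell survival.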

[4] abbreviates: read-out: RIPK1 ADP-Glo Kinase (IC50).

Sequence of RIPK1 (Q13546 whole entry, species assumed): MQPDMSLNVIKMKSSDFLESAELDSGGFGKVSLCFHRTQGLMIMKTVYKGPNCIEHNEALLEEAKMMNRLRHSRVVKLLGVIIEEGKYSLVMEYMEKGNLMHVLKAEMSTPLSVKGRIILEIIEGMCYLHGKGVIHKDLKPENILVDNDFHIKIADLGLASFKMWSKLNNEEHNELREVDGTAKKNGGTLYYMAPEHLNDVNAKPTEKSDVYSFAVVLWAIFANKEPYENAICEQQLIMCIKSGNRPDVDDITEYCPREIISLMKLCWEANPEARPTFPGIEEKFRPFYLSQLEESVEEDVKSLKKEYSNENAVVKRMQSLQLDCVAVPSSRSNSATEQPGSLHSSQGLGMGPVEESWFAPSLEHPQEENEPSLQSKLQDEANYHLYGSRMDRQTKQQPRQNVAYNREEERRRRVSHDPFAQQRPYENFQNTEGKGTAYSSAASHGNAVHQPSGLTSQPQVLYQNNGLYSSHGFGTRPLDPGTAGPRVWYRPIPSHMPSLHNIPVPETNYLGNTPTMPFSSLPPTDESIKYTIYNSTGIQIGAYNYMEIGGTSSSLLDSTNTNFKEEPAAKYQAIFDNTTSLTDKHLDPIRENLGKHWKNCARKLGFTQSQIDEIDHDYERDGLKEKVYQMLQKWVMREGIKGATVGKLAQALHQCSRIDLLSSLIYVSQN

Consider `CN1C(=O)[C@@H](NC(=O)c2cc(Cc3ccc(F)cc3)ccn2)COc2ccc(C#CC(C)(C)O)cc21` [Compound I-125, (S)-4-(4-fluorobenzyl)-N-(7-(3-hydroxy-3-methylbut-1-yn-1-yl)-5-methyl-4-oxo-2,3,4,5-tetrahydrobenzo[b][1,4]oxazepin-3-yl)picolinamide], for which the IC50 (usually the point on the concentration scale where inhibition reaches its midpoint) in assay [1] worked out at 116 nM; in assay [2] (setting [4]) it was 26.2 nM; in assay [3], 9.8 nM.
The like results for `COC(C)(C)C#Cc1ccc2c(c1)N(C)C(=O)[C@@H](NC(=O)c1n[nH]c(Cc3ccccc3)n1)CO2` [Compound I-61, (S)-5-benzyl-N-(7-(3-methoxy-3-methylbut-1-yn-1-yl)-5-methyl-4-oxo-2,3,4,5-tetrahydrobenzo[b][1,4]oxazepin-3-yl)-1H-1,2,4-triazole-3-carboxamide] were, in that order, 1.3 nM, 65.4 nM and 3.4 nM.
Take `CN1C(=O)[C@@H](NC(=O)c2cc(Oc3ccccc3)ccn2)COc2ccc(C#CC3(O)CCN(C(=O)c4cc(Oc5ccccc5)ccn4)CC3)cc21` [Compound I-131, (S)—N-(7-((4-hydroxy-1-(4-phenoxypicolinoyl)piperidin-4-yl)ethynyl)-5-methyl-4-oxo-2,3,4,5-tetrahydrobenzo[b][1,4]oxazepin-3-yl)-4-phenoxypicolinamide]: the IC50 in assay [1] turned out to be 65.8 nM; in assay [2] (setting [4]), 446 nM; in assay [3], 3.7 nM.
The like results for `CN1C(=O)[C@@H](NC(=O)c2cc(Oc3ccccc3)ccn2)COc2cc(C#Cc3ccccn3)ccc21` [II-16, (S)—N-(5-methyl-4-oxo-8-(pyridin-2-ylethynyl)-2,3,4,5-tetrahydrobenzo[b][1,4]oxazepin-3-yl)-4-phenoxypicolinamide] were, in that order, 2120 nM, 45.2 nM and 3.4 nM.
In the same order, the values of `CN1C(=O)[C@@H](NC(=O)c2cc(Oc3ccccc3)ccn2)COc2ccc(C#CC3(OC(=O)NCCCN4CCOCC4)COC3)cc21` [Compound I-130] are 89.5 nM, 30.8 nM and 1.5 nM.
The like results for `CN1C(=O)[C@@H](NC(=O)n2ccc(Cc3ccc(F)cc3)n2)COc2ccc(C#CC3(O)CCC3)cc21` [Compound I-223, (S)-3-(4-Fluorobenzyl)-N-(7-((1-hydroxycyclobutyl)ethynyl)-5-methyl-4-oxo-2,3,4,5-tetrahydrobenzo[b][1,4]oxazepin-3-yl)-1H-pyrazole-1-carboxamide] were, in that order, 10300 nM, 141 nM and 627 nM.
For the compound `CN1C(=O)[C@@H](NC(=O)c2n[nH]c(Cc3ccccc3)n2)COc2ccc(C#CCCOc3ccc4cccnc4c3)cc21` [Compound I-41, (S)-5-benzyl-N-(5-methyl-4-oxo-7-(4-(quinolin-7-yloxy)but-1-yn-1-yl)-2,3,4,5-tetrahydrobenzo[b][1,4]oxazepin-3-yl)-1H-1,2,4-triazole-3-carboxamide], the IC50 in assay [1] turned out to be 1.6 nM; in assay [2] (setting [4]), 80 nM; in assay [3] it was 5.2 nM.
As to `CN1C(=O)[C@@H](NC(=O)c2n[nH]c(Cc3ccccc3)n2)COc2ccc(C#CC(C)(C)O)cc21` [Compound I-30, (S)-5-benzyl-N-(7-(3-hydroxy-3-methylbut-1-yn-1-yl)-5-methyl-4-oxo-2,3,4,5-tetrahydrobenzo[b][1,4]oxazepin-3-yl)-1H-1,2,4-triazole-3-carboxamide], the IC50 in assay [1] worked out at 72.3 nM; in assay [2], 40.2 nM; in assay [3], 3.6 nM.
Regarding `CN1C(=O)[C@@H](NC(=O)c2cc(Oc3ccc(F)cc3F)ccn2)COc2ccc(C#CC(C)(C)C)cc21` [Compound I-104, (S)-4-(2,4-difluorophenoxy)-N-(7-(3,3-dimethylbut-1-yn-1-yl)-5-methyl-4-oxo-2,3,4,5-tetrahydrobenzo[b][1,4]oxazepin-3-yl)picolinamide], the IC50 in assay [1] amounted to 1820 nM; in assay [2] (setting [4]) it was 581 nM; in assay [3], 224 nM.
On to `CN1C(=O)[C@@H](NC(=O)c2cc(Oc3ccccc3)ccn2)COc2ccc(C#CC(C)(C)COC(=O)CCC(=O)O)cc21` [Compound I-144, (S)-4-((2,2-dimethyl-4-(5-methyl-4-oxo-3-(4-phenoxypicolinamido)-2,3,4,5-tetrahydrobenzo[b][1,4]oxazepin-7-yl)but-3-yn-1-yl)oxy)-4-oxobutanoic acid], for which the IC50 was 156 nM in assay [1], 22 nM in assay [2] (setting [4]) and 1.2 nM in assay [3].
Turning to `CN1C(=O)[C@@H](NC(=O)c2n[nH]c(Cc3ccccc3)n2)COc2ccc(CCC(=O)N3CCCC3)cc21` [Compound I-10, (S)-5-benzyl-N-(5-methyl-4-oxo-7-(3-oxo-3-(pyrrolidin-1-yl)propyl)-2,3,4,5-tetrahydrobenzo[b][1,4]oxazepin-3-yl)-1H-1,2,4-triazole-3-carboxamide], the IC50 was 11200 nM in assay [1], 42.9 nM in assay [2] (setting [4]) and 7.9 nM in assay [3].
In the same order, the values of `CC(C)Cn1cnc(C(=O)N[C@H]2COc3ccc(C#CC(C)(C)O)cc3N(C)C2=O)n1` [Compound I-85, (S)—N-(7-(3-hydroxy-3-methylbut-1-yn-1-yl)-5-methyl-4-oxo-2,3,4,5-tetrahydrobenzo[b][1,4]oxazepin-3-yl)-1-isobutyl-1H-1,2,4-triazole-3-carboxamide] are 0.6 nM, 42.3 nM and 3.3 nM.
`CN1C(=O)[C@@H](NC(=O)c2n[nH]c(Cc3ccccc3)n2)COc2cc(CN3CCn4nc(C(F)(F)F)nc4C3)ccc21` [Compound I-66, (S)-5-benzyl-N-(5-methyl-4-oxo-8-((2-(trifluoromethyl)-5,6-dihydro-[1,2,4]triazolo[1,5-a]pyrazin-7(8H)-yl)methyl)-2,3,4,5-tetrahydrobenzo[b][1,4]oxazepin-3-yl)-1H-1,2,4-triazole-3-carboxamide]: the IC50 in assay [1] is 94.9 nM; in assay [2] (setting [4]), 79.4 nM; in assay [3], 189 nM.
In the same order, the values of `CN1C(=O)[C@@H](NC(=O)c2n[nH]c(Cc3ccccc3)n2)COc2ccc(/C=C/C(=O)NC3CC3)cc21` [Compound I-23, (S,E)-5-benzyl-N-(7-(3-(cyclopropylamino)-3-oxoprop-1-en-1-yl)-5-methyl-4-oxo-2,3,4,5-tetrahydrobenzo[b][1,4]oxazepin-3-yl)-1H-1,2,4-triazole-3-carboxamide] are 14500 nM, 35.2 nM and 6.7 nM.
In the same order, the values of `CN1C(=O)[C@@H](NC(=O)c2n[nH]c(Cc3ccccc3)n2)COc2ccc(C#CC(C)(C)C)cc21` [Compound I-49, (S)-5-benzyl-N-(7-(3,3-dimethylbut-1-yn-1-yl)-5-methyl-4-oxo-2,3,4,5-tetrahydrobenzo[b][1,4]oxazepin-3-yl)-1H-1,2,4-triazole-3-carboxamide] are 1.2 nM, 60.4 nM and 5 nM.
As to `CN1C(=O)[C@@H](NC(=O)c2cc(Oc3ccccc3)ccn2)COc2ccc(C#CC3CCCN3)cc21` (stereo partly drawn) [II-39, N-((3S)-5-methyl-4-oxo-7-(pyrrolidin-2-ylethynyl)-2,3,4,5-tetrahydrobenzo[b][1,4]oxazepin-3-yl)-4-phenoxypicolinamide], the IC50 in assay [1] was determined as 1350 nM; in assay [2] (setting [4]), 23 nM; in assay [3] it was 1.8 nM.
